Results published in publication PMC6422671 (British Journal of Clinical Pharmacology, 2019).

Assay: Vital signs; data mean (standard deviation)
Type: in vivo, healthy men
Source text: Data are mean (standard deviation)

## C[C@@H](N)c1cc(Cl)ccc1Cn1c(=S)[nH]c(=O)c2[nH]ccc21 [AZD4831]
5 mg fasted, 0.5 h
  DBP: 71 (7) mmHg
  Pulse: 61 (4) bpm
  SBP: 116 (10) mmHg
5 mg fasted, 1 h
  DBP: 71 (7) mmHg
  Pulse: 61 (5) bpm
  SBP: 114 (8) mmHg
5 mg fasted, 2 h
  DBP: 71 (5) mmHg
  Pulse: 60 (4) bpm
  SBP: 119 (10) mmHg
5 mg fasted, 3 h
  DBP: 72 (9) mmHg
  Pulse: 60 (4) bpm
  SBP: 119 (12) mmHg
5 mg fasted, 4 h
  DBP: 71 (7) mmHg
  Pulse: 64 (5) bpm
  SBP: 118 (9) mmHg
5 mg fasted, 6 h
  DBP: 69 (8) mmHg
  Pulse: 68 (5) bpm
  SBP: 118 (11) mmHg
5 mg fasted, 8 h
  DBP: 68 (5) mmHg
  Pulse: 62 (5) bpm
  SBP: 117 (9) mmHg
5 mg fasted, 12 h
  DBP: 69 (9) mmHg
  Pulse: 68 (4) bpm
  SBP: 118 (13) mmHg
5 mg fasted, 24 h
  DBP: 69 (5) mmHg
  Pulse: 59 (5) bpm
  SBP: 112 (5) mmHg
5 mg fasted, 36 h
  DBP: 69 (4) mmHg
  Pulse: 68 (5) bpm
  SBP: 119 (6) mmHg
5 mg fasted, 48 h
  DBP: 70 (4) mmHg
  Pulse: 64 (9) bpm
  SBP: 116 (8) mmHg
15 mg fasted, 0.5 h
  DBP: 68 (4) mmHg
  Pulse: 58 (9) bpm
  SBP: 115 (7) mmHg
15 mg fasted, 1 h
  DBP: 67 (4) mmHg
  Pulse: 61 (9) bpm
  SBP: 115 (8) mmHg
15 mg fasted, 2 h
  DBP: 65 (2) mmHg
  Pulse: 58 (6) bpm
  SBP: 113 (4) mmHg
15 mg fasted, 3 h
  DBP: 65 (3) mmHg
  Pulse: 58 (4) bpm
  SBP: 112 (5) mmHg
15 mg fasted, 4 h
  DBP: 66 (6) mmHg
  Pulse: 59 (8) bpm
  SBP: 113 (5) mmHg
15 mg fasted, 6 h
  DBP: 65 (2) mmHg
  Pulse: 68 (9) bpm
  SBP: 119 (9) mmHg
15 mg fasted, 8 h
  DBP: 64 (2) mmHg
  Pulse: 63 (11) bpm
  SBP: 116 (7) mmHg
15 mg fasted, 12 h
  DBP: 64 (4) mmHg
  Pulse: 69 (10) bpm
  SBP: 119 (5) mmHg
15 mg fasted, 24 h
  DBP: 67 (2) mmHg
  Pulse: 62 (7) bpm
  SBP: 113 (4) mmHg
15 mg fasted, 36 h
  DBP: 63 (4) mmHg
  Pulse: 73 (9) bpm
  SBP: 118 (5) mmHg
15 mg fasted, 48 h
  DBP: 66 (5) mmHg
  Pulse: 65 (12) bpm
  SBP: 114 (7) mmHg
45 mg fasted, 0.5 h
  DBP: 73 (14) mmHg
  Pulse: 59 (11) bpm
  SBP: 122 (13) mmHg
45 mg fasted, 1 h
  DBP: 72 (14) mmHg
  Pulse: 57 (10) bpm
  SBP: 125 (12) mmHg
45 mg fasted, 2 h
  DBP: 69 (15) mmHg
  Pulse: 59 (10) bpm
  SBP: 122 (17) mmHg
45 mg fasted, 3 h
  DBP: 70 (13) mmHg
  Pulse: 60 (8) bpm
  SBP: 120 (14) mmHg
45 mg fasted, 4 h
  DBP: 69 (16) mmHg
  Pulse: 58 (8) bpm
  SBP: 121 (13) mmHg
45 mg fasted, 6 h
  DBP: 66 (7) mmHg
  Pulse: 61 (10) bpm
  SBP: 120 (9) mmHg
45 mg fasted, 8 h
  DBP: 68 (15) mmHg
  Pulse: 59 (11) bpm
  SBP: 116 (11) mmHg
45 mg fasted, 12 h
  DBP: 68 (11) mmHg
  Pulse: 63 (12) bpm
  SBP: 124 (12) mmHg
45 mg fasted, 24 h
  DBP: 71 (11) mmHg
  Pulse: 58 (11) bpm
  SBP: 118 (9) mmHg
45 mg fasted, 36 h
  DBP: 66 (14) mmHg
  Pulse: 66 (11) bpm
  SBP: 121 (9) mmHg
45 mg fasted, 48 h
  DBP: 69 (11) mmHg
  Pulse: 64 (13) bpm
  SBP: 120 (10) mmHg
45 mg fed, 0.5 h
  DBP: 66 (16) mmHg
  Pulse: 63 (6) bpm
  SBP: 121 (15) mmHg
45 mg fed, 1 h
  DBP: 65 (11) mmHg
  Pulse: 66 (11) bpm
  SBP: 122 (16) mmHg
45 mg fed, 2 h
  DBP: 66 (18) mmHg
  Pulse: 64 (9) bpm
  SBP: 120 (12) mmHg
45 mg fed, 3 h
  DBP: 69 (11) mmHg
  Pulse: 64 (9) bpm
  SBP: 125 (13) mmHg
45 mg fed, 4 h
  DBP: 67 (15) mmHg
  Pulse: 62 (10) bpm
  SBP: 123 (17) mmHg
45 mg fed, 6 h
  DBP: 70 (15) mmHg
  Pulse: 64 (8) bpm
  SBP: 120 (7) mmHg
45 mg fed, 8 h
  DBP: 71 (17) mmHg
  Pulse: 59 (9) bpm
  SBP: 121 (14) mmHg
45 mg fed, 12 h
  DBP: 69 (15) mmHg
  Pulse: 63 (10) bpm
  SBP: 124 (8) mmHg
45 mg fed, 24 h
  DBP: 69 (12) mmHg
  Pulse: 57 (9) bpm
  SBP: 114 (9) mmHg
45 mg fed, 36 h
  DBP: 71 (15) mmHg
  Pulse: 62 (9) bpm
  SBP: 127 (9) mmHg
45 mg fed, 48 h
  DBP: 73 (13) mmHg
  Pulse: 57 (4) bpm
  SBP: 116 (7) mmHg
135 mg fasted, 0.5 h
  DBP: 69 (5) mmHg
  Pulse: 59 (6) bpm
  SBP: 113 (8) mmHg
135 mg fasted, 1 h
  DBP: 70 (4) mmHg
  Pulse: 61 (9) bpm
  SBP: 110 (5) mmHg
135 mg fasted, 2 h
  DBP: 68 (6) mmHg
  Pulse: 59 (7) bpm
  SBP: 113 (10) mmHg
135 mg fasted, 3 h
  DBP: 68 (6) mmHg
  Pulse: 59 (6) bpm
  SBP: 113 (7) mmHg
135 mg fasted, 4 h
  DBP: 69 (6) mmHg
  Pulse: 60 (7) bpm
  SBP: 116 (8) mmHg
135 mg fasted, 6 h
  DBP: 66 (6) mmHg
  Pulse: 67 (8) bpm
  SBP: 113 (10) mmHg
135 mg fasted, 8 h
  DBP: 70 (6) mmHg
  Pulse: 62 (4) bpm
  SBP: 113 (8) mmHg
135 mg fasted, 12 h
  DBP: 69 (7) mmHg
  Pulse: 70 (5) bpm
  SBP: 119 (9) mmHg
135 mg fasted, 24 h
  DBP: 69 (3) mmHg
  Pulse: 65 (9) bpm
  SBP: 115 (7) mmHg
135 mg fasted, 36 h
  DBP: 67 (6) mmHg
  Pulse: 73 (7) bpm
  SBP: 118 (12) mmHg
135 mg fasted, 48 h
  DBP: 71 (5) mmHg
  Pulse: 67 (9) bpm
  SBP: 114 (10) mmHg
405 mg fasted, 0.5 h
  DBP: 70 (7) mmHg
  Pulse: 61 (8) bpm
  SBP: 116 (9) mmHg
405 mg fasted, 1 h
  DBP: 69 (8) mmHg
  Pulse: 61 (8) bpm
  SBP: 114 (6) mmHg
405 mg fasted, 2 h
  DBP: 68 (6) mmHg
  Pulse: 58 (8) bpm
  SBP: 114 (9) mmHg
405 mg fasted, 3 h
  DBP: 67 (5) mmHg
  Pulse: 57 (6) bpm
  SBP: 112 (6) mmHg
405 mg fasted, 4 h
  DBP: 69 (7) mmHg
  Pulse: 60 (8) bpm
  SBP: 115 (5) mmHg
405 mg fasted, 6 h
  DBP: 66 (5) mmHg
  Pulse: 63 (8) bpm
  SBP: 113 (4) mmHg
405 mg fasted, 8 h
  DBP: 67 (5) mmHg
  Pulse: 59 (7) bpm
  SBP: 113 (5) mmHg
405 mg fasted, 12 h
  DBP: 67 (4) mmHg
  Pulse: 63 (8) bpm
  SBP: 114 (8) mmHg
405 mg fasted, 24 h
  DBP: 71 (2) mmHg
  Pulse: 60 (7) bpm
  SBP: 113 (4) mmHg
405 mg fasted, 36 h
  DBP: 68 (4) mmHg
  Pulse: 65 (5) bpm
  SBP: 118 (4) mmHg
405 mg fasted, 48 h
  DBP: 71 (7) mmHg
  Pulse: 65 (9) bpm
  SBP: 118 (4) mmHg
In vivo
  changes in vital signs or electrocardiography parameters: no clinically significant changes
